What was measured:
[1] = biological target: T1, bovine liver β-glucuronidase (Bos taurus, UniProt A3KMY8); assay: Hydrolysis of glucuronides by bovine liver β-glucuronidase; type: biochemical; settings: bovine liver enzyme, pH 5.0; initial rate; enzyme diluted so that PGA rates are equivalent
T1 sequence (A3KMY8 24-652): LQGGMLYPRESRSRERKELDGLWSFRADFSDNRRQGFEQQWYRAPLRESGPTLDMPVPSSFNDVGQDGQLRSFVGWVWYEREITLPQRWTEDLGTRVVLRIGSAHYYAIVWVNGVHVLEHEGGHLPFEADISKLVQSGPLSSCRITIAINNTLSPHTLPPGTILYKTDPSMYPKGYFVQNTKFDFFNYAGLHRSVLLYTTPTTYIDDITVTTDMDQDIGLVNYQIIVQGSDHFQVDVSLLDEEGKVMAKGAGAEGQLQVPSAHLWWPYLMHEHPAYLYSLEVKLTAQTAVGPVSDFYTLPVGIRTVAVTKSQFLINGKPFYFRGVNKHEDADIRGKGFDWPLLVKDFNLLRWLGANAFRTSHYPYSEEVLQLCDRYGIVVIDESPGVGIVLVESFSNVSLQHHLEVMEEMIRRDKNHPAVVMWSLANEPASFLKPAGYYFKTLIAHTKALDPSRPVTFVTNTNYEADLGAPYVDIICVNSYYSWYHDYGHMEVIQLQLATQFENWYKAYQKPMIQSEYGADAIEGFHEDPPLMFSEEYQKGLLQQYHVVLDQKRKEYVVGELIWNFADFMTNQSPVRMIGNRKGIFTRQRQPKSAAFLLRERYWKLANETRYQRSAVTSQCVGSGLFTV

[2] = biological target: E. coli β-glucuronidase (Escherichia coli, UniProt P05804); assay: Hydrolysis of glucuronides by E. coli β-glucuronidase; type: biochemical; settings: pH 6.8; for Hydrolysis of Glucuronides: E. coli enzyme, initial rate, enzyme diluted so that PGA rates are equivalent
E. coli β-glucuronidase, sequence (P05804 whole entry): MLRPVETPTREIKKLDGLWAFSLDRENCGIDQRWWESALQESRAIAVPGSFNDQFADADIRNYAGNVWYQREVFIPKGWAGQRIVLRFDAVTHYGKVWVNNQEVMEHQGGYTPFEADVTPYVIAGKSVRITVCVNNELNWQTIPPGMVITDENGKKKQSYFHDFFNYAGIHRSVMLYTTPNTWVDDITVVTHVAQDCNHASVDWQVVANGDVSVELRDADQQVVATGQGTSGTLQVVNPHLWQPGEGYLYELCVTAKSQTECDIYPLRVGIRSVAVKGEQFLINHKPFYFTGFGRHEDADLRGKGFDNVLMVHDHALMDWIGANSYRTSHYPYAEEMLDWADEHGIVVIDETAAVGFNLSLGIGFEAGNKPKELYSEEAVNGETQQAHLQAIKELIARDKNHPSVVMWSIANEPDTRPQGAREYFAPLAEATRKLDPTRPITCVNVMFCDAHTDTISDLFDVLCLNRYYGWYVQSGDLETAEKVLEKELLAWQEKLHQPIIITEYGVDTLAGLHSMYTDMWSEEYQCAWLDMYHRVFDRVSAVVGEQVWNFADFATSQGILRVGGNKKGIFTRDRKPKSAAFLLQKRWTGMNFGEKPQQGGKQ

[3] = biological target: T2, human sweat β-glucuronidase (Homo sapiens, UniProt P08236); assay: Hydrolysis of model glucuronides by human sweat glucuronidase; type: biochemical; settings: for Hydrolysis of Glucuronides: dialyzed human sweat, initial rate, enzyme diluted so that PGA rates are equivalent
T2 sequence (P08236 23-651): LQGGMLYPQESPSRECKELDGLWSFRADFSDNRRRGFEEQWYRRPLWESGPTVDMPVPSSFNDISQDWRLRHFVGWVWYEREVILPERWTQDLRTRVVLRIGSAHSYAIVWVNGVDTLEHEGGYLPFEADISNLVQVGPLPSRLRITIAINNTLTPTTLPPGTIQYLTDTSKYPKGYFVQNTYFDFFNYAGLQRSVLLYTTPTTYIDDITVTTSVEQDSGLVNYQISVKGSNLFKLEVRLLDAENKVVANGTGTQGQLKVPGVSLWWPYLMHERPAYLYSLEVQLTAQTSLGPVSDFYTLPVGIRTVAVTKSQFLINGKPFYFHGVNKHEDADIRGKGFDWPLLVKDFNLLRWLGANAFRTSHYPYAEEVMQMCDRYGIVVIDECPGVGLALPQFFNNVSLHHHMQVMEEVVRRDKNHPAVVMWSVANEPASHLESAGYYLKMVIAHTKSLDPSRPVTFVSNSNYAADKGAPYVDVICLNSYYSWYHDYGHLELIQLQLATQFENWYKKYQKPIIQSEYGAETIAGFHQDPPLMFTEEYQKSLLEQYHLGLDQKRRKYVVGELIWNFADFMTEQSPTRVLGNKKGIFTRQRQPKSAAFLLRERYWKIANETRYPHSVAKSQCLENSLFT
Description: Sweat was obtained from human volunteers by collection from the axilla during high temperature (>41° C.) in a sauna. The sweat was clarified by centrifugation at 20,000 g for 30 min. This clarified sweat was then either utilized directly in hydrolysis studies or dialyzed against 100 mM NaCl, 50 mM sodium acetate, pH 5.0 prior to use. […] Most of the data presented herein was generated with dialyzed preparations.
β-glucuronidase activity was assayed in the sweat by hydrolysis of phenolphthalein glucuronide. Briefly, this assay was carried out as follows: to an aliquot of undialyzed sweat was added an equal volume of buffer comprising 100 mM NaCl, 100 mM sodium acetate, pH 5.0 (this step was unnecessary when assaying dialyzed sweat) followed by 10 μl of a 100 mg/ml phenolphthalein glucuronide solution (Sigma Chemical, St. Louis, Mo.). The reaction mixture was then incubated at 37° C. After 30 min an aliquot of the reaction mixture was added to a five-fold excess of a 0.2 M glycine buffer, pH 10.4 and the absorbance wa determined at 540 nm. The activity was determined by comparison to a known amount of E. coli β-glucuronidase (Sigma, Type VII) run under standard conditions.
A variety of glucuronides were synthesized and tested for their ability to be hydrolyzed by human sweat glucuronidase. […] These hydrolysis reactions were all carried out under similar conditions, and the extent of hydrolysis was determined at the various time points by HPLC analysis of the reaction mixture.
Generally, dialyzed preparations of sweat were used for the reasons discussed earlier. […] A typical experiment was done by bringing the enzyme solution (50-100 U/ml) to 0.01 to 0.05% in the glucuronide to be tested. A zero time aliquot was withdrawn and stored frozen; the remaining reaction mixture was incubated at 37° C. Aliquots were taken at various time points for rate determinations. These aliquots were stored at -20° C. until analysis by HPLC.
High pressure liquid chromatography of the aliquots drawn from the hydrolysis reactions allowed the separation of the aglycon from the glucuronide in all cases. The nmoles released at any given time were calculated from the absorption at 254 nm and the known extinction coefficient of the compound. Rates are given as initial rates which are determined by plotting nmoles aglycon vs. time.

[4] = test system: rabbit eye pupil; assay: Mydriasis assay (rabbit eye pupil diameter); type: in vivo; settings: for Change in Pupil Diameter as a function of time: error ± 0.5 mm; for mydriatic potency compared to the parent drugs: compared to parent drugs tropicamide and scopolamine
Description: The rabbit eye pupil diameter was measured with a clear plastic ruler after exposing the eye to 50 W light at a distance of 6 in. Exposure to light contracts the pupil to approximately 3 mm diameter.
The addition of the compounds to be tested is done in a maximum volume of 150 μl, in 50 mM NaPO4, pH 6.8, 100 mM NaCl. The sample was applied in the upper corner of the eye and was allowed to completely cover the cornea after each addition. Pupil dilation was measured at 3 separate intervals following the procedure outlined above. Buffer controls were run in one eye and the anticholinergic in the other.

[5] = Solubility of aglycon in the enzymatic reaction mixture; type: physicochemical; settings: aqueous tris hydrochloride reaction mixture
Description: Due to the low solubility of this compound, excess solid material is added to the reaction mixture so that a saturated solution of aglycon is maintained throughout the reaction. The glucuronide is isolated by HPLC with the reversed phase system described in Example 2. It is characterized by hydrolysis with excess E. coli β-glucuronidase (1000 U/ml, pH 6.8) (Sigma, Type […]) for 1 hr at 37° C. which quantitatively releases the aglycon as assayed by HPLC.
The glucuronide of scopolamine p-hydroxybenzoate is synthesized with uridine 5'-diphosphoglucuronic acid transferase by first removing all or substantially all of the esterase activity from liver microsomes. These esterases are removed since they will hydrolyze the aglycon. This operation can be done by washing the liver microsomes in a suitable buffer, as described herein, or by other equivalent washing means known to persons in this art. Advantageously, an esterase inhibitor can be used to supplement the washing of the microsomes. For example, a competitive inhibitor of the esterases such as lysine ethyl ester, and the like, or a suicide substrate such as phenylmethylsulfonyl fluoride, and the like, can be used. […] The glucuronide is characterized by hydrolysis with excess E. coli β-glucuronidase (100 U/ml, pH 6.8) (Sigma, Type VII) for 1 hr at 37° C. which quantitatively releases the aglycon as assayed by HPLC.

[6] = levels 100-fold greater than required to effect a strong mydriatic response with the aglycon

O=C1OC(c2ccc(O)cc2)(c2ccc(O[C@@H]3O[C@H](C(=O)O)[C@@H](O)[C@H](O)[C@H]3O)cc2)c2ccccc21 (stereo partly shown) [Phenolphthalein glucuronide, phenolphthalein glucuronide]
Hydrolysis of Glucuronides [1]: 200 nmoles/hour/100 units | Hydrolysis of Glucuronides [2]: 200 nmoles/hour/100 units | Hydrolysis of Glucuronides ([3]; pH 5.0): 200 nmoles/hour/100 units

CN1C2CC(OC(=O)C(COC3OC(C(=O)O)C(O)C(O)C3O)c3ccccc3)CC1C1OC12 [Scopolamine glucuronide, scopolamine O-β-D-glucuronide]
Hydrolysis of Glucuronides [1]: 25 nmoles/hour/100 units | Hydrolysis of Glucuronides [2]: 60 nmoles/hour/100 units | Hydrolysis by E. coli enzyme (in words) [2]: lower, but significant, activity | Hydrolysis of Glucuronides ([3]; pH 5.0): < 0.5 nmoles/hour/100 units | Hydrolysis by human sweat enzyme (in words) ([3]; pH 5.0): no scopolamine could be detected | Hydrolysis by human sweat enzyme (in words) ([3]; pH 6.8): no hydrolysis

CN1C2CC(OC(=O)C(COC(=O)c3ccc(OC4OC(C(=O)O)C(O)C(O)C4O)cc3)c3ccccc3)CC1C1OC12 [Scopolamine p-Hydroxybenzoy-O-β-D-Glucuronic Acid]
Change in Pupil Diameter as a function of time ([4]; 11.4 ug applied, in 45 min): 0 mm | mydriatic response (in words) [4, 6]: No mydriatic response | Hydrolysis of Glucuronides ([3]; pH 5.0): 40 nmoles/hour/100 units

CN1C2CC(OC(=O)C(COC(=O)c3ccc(O)cc3)c3ccccc3)CC1C1OC12 (stereo not shown) [Scopolamine p-hydroxybenzoate, Scopolamine p-Hydroxybenzoate]
solubility [5]: low | mydriatic response (in words) ([4]; 0.1 μg): sufficient for a response | Change in Pupil Diameter as a function of time ([4]; 0.1 ug applied, in 15 min): 7 mm | mydriatic potency compared to the parent drugs [4]: potent mydriatic agents

CN1[C@@H]2C[C@@H](OC(=O)[C@H](CO)c3ccccc3)C[C@H]1[C@@H]1O[C@@H]12 [Scopolamine]
mydriatic response (in words) ([4]; 0.6 μg): nonmydriatic | Change in Pupil Diameter as a function of time ([4]; 0.6 ug applied, in 15 min): 0 mm | Change in Pupil Diameter as a function of time ([4]; 6 ug applied, in 15 min): 6 mm | Change in Pupil Diameter as a function of time ([4]; 60 ug applied, in 10 min): 6 mm

COC(=O)C(CO[C@@H]1O[C@H](C(=O)O)[C@@H](O)[C@H](O)[C@H]1O)c1ccccc1 (stereo partly drawn) [Tropic acid methyl ester glucuronide, Tropic Acid Methyl Ester-O-β-D-Glucuronide]
Hydrolysis of Glucuronides ([3]; pH 5.0): 2.6 nmoles/hour/100 units

CCN(Cc1ccncc1)C(=O)C(CO[C@@H]1O[C@H](C(=O)O)[C@@H](O)[C@H](O)[C@H]1O)c1ccccc1 (stereo partly drawn) [Tropicamide glucuronide, tropicamide O-β-D-glucuronide]
Hydrolysis of Glucuronides [1]: 24 nmoles/hour/100 units | Hydrolysis of Glucuronides [2]: > 150 nmoles/hour/100 units | Hydrolysis by E. coli enzyme (in words) [2]: rapidly hydrolyzes | Change in Pupil Diameter as a function of time ([4]; 600 ug applied, in 30 min): 0 mm | Hydrolysis of Glucuronides ([3]; pH 5.0): 1.6 nmoles/hour/100 units | Hydrolysis by human sweat enzyme (in words) ([3]; pH 5.0): Trace amounts | Hydrolysis by human sweat enzyme (in words) ([3]; pH 6.8): no hydrolysis

CCN(Cc1ccncc1)C(=O)C(COC(=O)c1ccc(O[C@@H]2O[C@H](C(=O)O)[C@@H](O)[C@H](O)[C@H]2O)cc1)c1ccccc1 (stereo partly drawn) [Tropicamide p-Hydroxybenzoyl-O-β-D-Glucuronic Acid]
Change in Pupil Diameter as a function of time ([4]; 600 ug applied, in 25 min): 0 mm | mydriatic response (in words) [4, 6]: No mydriatic response | Hydrolysis of Glucuronides ([3]; pH 5.0): 36 nmoles/hour/100 units

CCN(Cc1ccncc1)C(=O)C(COC(=O)c1ccc(O)cc1)c1ccccc1 (stereo not shown) [Tropicamide p-hydroxybenzoate, tropicamide p-hydroxybenzoate]
solubility [5]: low | mydriatic response (in words) ([4]; 5.5 μg): clearly mydriatic | Change in Pupil Diameter as a function of time ([4]; 5.5 ug applied, in 35 min): 4 mm | mydriatic potency compared to the parent drugs [4]: potent mydriatic agents

CCN(Cc1ccncc1)C(=O)C(CO)c1ccccc1 (stereo not shown) [Tropicamide]
mydriatic response (in words) ([4]; 20 μg): weak response

COC(=O)Cc1ccc(O[C@@H]2O[C@H](C(=O)O)[C@@H](O)[C@H](O)[C@H]2O)cc1 [p-Hydroxyphenylacetic Acid Methyl Ester-O-β-D-Glucuronide]
Hydrolysis of Glucuronides ([3]; pH 5.0): 37 nmoles/hour/100 units
